The first assay concerns COG-LL-332h. Briefly: selective drug sensitivity score (sDSS, relative to normal bone marrow) (sDSS (score)); higher = more potent and effective on the cell line relative to normal bone marrow cells. To be noted: 72 h.
Turning to `Cc1cnc(Nc2ccc(OCCN3CCCC3)cc2)nc1Nc1cccc(S(=O)(=O)NC(C)(C)C)c1` [Fedratinib] (top concentration 10000 nM), the “selective drug sensitivity score” value is -2.26.
In the case of `COc1ccc(-c2nc(N3CCOCC3)c3sc(CN(C)c4ncc(C(=O)NO)cn4)cc3n2)cn1` [Fimepinostat (CUDC-907)] (top concentration 10000 nM), the “selective drug sensitivity score” value was determined as 1.08.
On to `CCOC(=O)CCNc1cc(N2CCc3ccccc3CC2)nc(-c2ccccn2)n1` [GSK-J4] (top concentration 100000 nM), for which the “selective drug sensitivity score” value was -7.08.
In the case of `Cc1cc(Nc2cc(CN3CCOCC3)c3nc(C)c(Cc4ccc(Cl)cc4F)n3n2)n[nH]1` [Gandotinib] (top concentration 10000 nM), the “selective drug sensitivity score” value is 2.18.
Take `NC(=O)NO` [Hydroxyurea] (top concentration 1000000 nM): the “selective drug sensitivity score” value amounted to 12.5.
Take `Cc1ccc(NC(=O)c2ccc(CN3CCN(C)CC3)cc2)cc1Nc1nccc(-c2cccnc2)n1` [Imatinib] (top concentration 10000 nM): the “selective drug sensitivity score” value came to 10.2.
With `CC(C)NC[C@@H](C(=O)N1CCN(c2ncnc3c2[C@H](C)C[C@H]3O)CC1)c1ccc(Cl)cc1` [Ipatasertib] (top concentration 10000 nM), the “selective drug sensitivity score” value came to 5.8.
`CCC(C)n1ncn(-c2ccc(N3CCN(c4ccc(OCC5COC(Cn6cncn6)(c6ccc(Cl)cc6Cl)O5)cc4)CC3)cc2)c1=O` (centres undefined) [Itraconazole] (top concentration 5000 nM): the “selective drug sensitivity score” value was found to be 2.48.
As for `Cc1sc2c(c1C)C(c1ccc(Cl)cc1)=N[C@@H](CC(=O)OC(C)(C)C)c1nnc(C)n1-2` [JQ1] (top concentration 10000 nM), the “selective drug sensitivity score” value is -3.08.
Turning to `CCNC(=O)c1noc(-c2cc(C(C)C)c(O)cc2O)c1-c1ccc(CN2CCOCC2)cc1` [Luminespib] (top concentration 1000 nM), the “selective drug sensitivity score” value came to 7.1.
With `O=C(c1cccc(Cl)c1F)N1CCN(Cc2cccc(Nc3nccs3)n2)CC1` [MK-8745] (top concentration 10000 nM), the “selective drug sensitivity score” value was found to be 14.
For `Cc1ccc(NC(=O)c2ccc(CN3CCN(C)CC3)cc2)cc1Nc1nc(-c2cccnc2)cs1` [Masitinib] (top concentration 10000 nM), the “selective drug sensitivity score” value is 5.52.
As for `CCN(CC)CCCC(C)Nc1c2ccc(Cl)cc2nc2ccc(OC)cc12` (centres undefined) [Mepacrine] (top concentration 50000 nM), the “selective drug sensitivity score” value is -0.4.
Same read-out and setting: the result for `COc1ccc(-c2ccc3ncc4c(c3c2)n(-c2ccc(N3CCNCC3)c(C(F)(F)F)c2)c(=O)n4C)cn1` [NVP-BGT226] (top concentration 1000 nM) reads 5.02.
Turning to `COc1nc(N)nc2c1ncn2[C@@H]1O[C@H](CO)[C@@H](O)[C@@H]1O` [Nelarabine] (top concentration 10000 nM), the “selective drug sensitivity score” value amounted to 2.78.
Regarding `Cc1cn(-c2cc(NC(=O)c3ccc(C)c(Nc4nccc(-c5cccnc5)n4)c3)cc(C(F)(F)F)c2)cn1` [Nilotinib] (top concentration 10000 nM), the “selective drug sensitivity score” value came to 16.4.
`NC(=O)c1cccc2cn(-c3ccc(C4CCCNC4)cc3)nc12` (centres undefined) [Niraparib] (top concentration 10000 nM): the “selective drug sensitivity score” value worked out at 3.88.
With `COc1ccc(C[C@H](NC(=O)[C@H](C)NC(=O)CN2CCOCC2)C(=O)N[C@@H](Cc2ccccc2)C(=O)[C@@]2(C)CO2)cc1` [ONX-0914] (top concentration 10000 nM), the “selective drug sensitivity score” value is 2.2.
Still for that read-out and setting: the value for `CC(=O)c1cnc2ccc(-c3cc(Cl)c(O)c(Cl)c3)nc2c1N[C@H]1CC[C@H](CN(C)C)CC1` [OTS167] (top concentration 1000 nM) was 3.78; that for `COC(=O)C[C@](O)(CCCC(C)(C)O)C(=O)O[C@@H]1C(OC)=C[C@]23CCCN2CCc2cc4c(cc2[C@H]13)OCO4` [Omacetaxine] (top concentration 10000 nM) was 2.62.
Same read-out and setting: the value for `C1=N/C2=N/c3ccc(OCCN4CCCC4)c(c3)COC/C=C/COCc3cccc(c3)C(=C1)N2` [Pacritinib] (top concentration 10000 nM) was -4.1.
`Cc1[nH]c2ccccc2c1CCNCc1ccc(/C=C/C(=O)NO)cc1` [Panobinostat] (top concentration 1000 nM): the “selective drug sensitivity score” value was 3.64.
For the compound `Cc1ccc(Nc2nccc(N(C)c3ccc4c(C)n(C)nc4c3)n2)cc1S(N)(=O)=O` [Pazopanib] (top concentration 10000 nM), the “selective drug sensitivity score” value stood at 0.14.
Same read-out and setting: the result for `Nc1nc2[nH]cc(CCc3ccc(C(=O)N[C@@H](CCC(=O)O)C(=O)O)cc3)c2c(=O)[nH]1` [Pemetrexed] (top concentration 10000 nM) reads 21.9; that for `Cc1ccc(C(=O)Nc2ccc(CN3CCN(C)CC3)c(C(F)(F)F)c2)cc1C#Cc1cnc2cccnn12` [Ponatinib] (top concentration 1000 nM), 17.6; that for `C[C@]12C=CC(=O)C=C1CC[C@@H]1[C@@H]2[C@@H](O)C[C@@]2(C)[C@H]1CC[C@]2(O)C(=O)CO` [Prednisolone] (top concentration 10000 nM), 2.5.
On the same count and under the same terms, the value for `CC(C)(C)c1cc(NC(=O)Nc2ccc(-c3cn4c(n3)sc3cc(OCCN5CCOCC5)ccc34)cc2)no1` [Quizartinib] (top concentration 1000 nM) was 2.78.
On the same count and under the same terms, the result for `Nc1cc(F)ccc1NC(=O)/C=C/c1cnn(C/C=C/c2ccccc2)c1` [RGFP966] (top concentration 10000 nM) reads 15.7; that for `CNC(=O)c1cc(Oc2ccc(NC(=O)Nc3ccc(Cl)c(C(F)(F)F)c3)c(F)c2)ccn1` [Regorafenib] (top concentration 10000 nM), 6.74.
In the case of `CN(C)Cc1ccc(S(=O)(=O)n2ccc(/C=C/C(=O)NO)c2)cc1` [Resminostat] (top concentration 10000 nM), the “selective drug sensitivity score” value came out at 1.34.
On the same count and under the same terms, the value for `COc1cc(OC)c(/C=C/S(=O)(=O)Cc2ccc(OC)c(NCC(=O)O)c2)c(OC)c1` [Rigosertib] (top concentration 10000 nM) was 15.8; that for `COc1ccc(CCc2nc3cc(-c4c(C)noc4C)ccc3n2C[C@H](C)N2CCOCC2)cc1Cl` [SGC-CBP30] (top concentration 25000 nM) was 0.28; that for `CCS(=O)(=O)c1cccc(-c2cc(C(=O)NC3CCN(C)CC3)c(C)c3[nH]c4ncc(C)cc4c23)c1` [TAK-901] (top concentration 1000 nM) was 11.3.
`Nc1nc(NC2CC2)cc(-c2cccc(Cl)c2Cl)n1` [TH588] (top concentration 25000 nM): the “selective drug sensitivity score” value came to 6.82.
For `CC(=O)Nc1ccc(C(=O)Nc2ccccc2N)cc1` [Tacedinaline] (top concentration 1000 nM), the “selective drug sensitivity score” value was -0.02.
Still for that read-out and setting: the value for `Cn1ncnc1[C@H]1c2n[nH]c(=O)c3cc(F)cc(c23)N[C@@H]1c1ccc(F)cc1` [Talazoparib] (top concentration 1000 nM) was 6.58.

A further assay deals with RPMI-8402. The description is as above. Conditions: 72 h.
For `Cc1cnc(Nc2ccc(OCCN3CCCC3)cc2)nc1Nc1cccc(S(=O)(=O)NC(C)(C)C)c1` [Fedratinib] (top concentration 10000 nM), the “selective drug sensitivity score” value was -2.16.
As for `COc1ccc(-c2nc(N3CCOCC3)c3sc(CN(C)c4ncc(C(=O)NO)cn4)cc3n2)cn1` [Fimepinostat (CUDC-907)] (top concentration 10000 nM), the “selective drug sensitivity score” value worked out at 5.28.
Regarding `CCOC(=O)CCNc1cc(N2CCc3ccccc3CC2)nc(-c2ccccn2)n1` [GSK-J4] (top concentration 100000 nM), the “selective drug sensitivity score” value was -8.18.
With `Cc1cc(Nc2cc(CN3CCOCC3)c3nc(C)c(Cc4ccc(Cl)cc4F)n3n2)n[nH]1` [Gandotinib] (top concentration 10000 nM), the “selective drug sensitivity score” value is 0.78.
In the case of `NC(=O)NO` [Hydroxyurea] (top concentration 1000000 nM), the “selective drug sensitivity score” value turned out to be 3.46.
Same read-out and setting: the result for `Cc1ccc(NC(=O)c2ccc(CN3CCN(C)CC3)cc2)cc1Nc1nccc(-c2cccnc2)n1` [Imatinib] (top concentration 10000 nM) reads 1.46; that for `CC(C)NC[C@@H](C(=O)N1CCN(c2ncnc3c2[C@H](C)C[C@H]3O)CC1)c1ccc(Cl)cc1` [Ipatasertib] (top concentration 10000 nM), 4.8; that for `CCC(C)n1ncn(-c2ccc(N3CCN(c4ccc(OCC5COC(Cn6cncn6)(c6ccc(Cl)cc6Cl)O5)cc4)CC3)cc2)c1=O` (centres undefined) [Itraconazole] (top concentration 5000 nM), 0.98.
`Cc1sc2c(c1C)C(c1ccc(Cl)cc1)=N[C@@H](CC(=O)OC(C)(C)C)c1nnc(C)n1-2` [JQ1] (top concentration 10000 nM): the “selective drug sensitivity score” value is 3.12.
With `CCNC(=O)c1noc(-c2cc(C(C)C)c(O)cc2O)c1-c1ccc(CN2CCOCC2)cc1` [Luminespib] (top concentration 1000 nM), the “selective drug sensitivity score” value was -3.8.
Regarding `O=C(c1cccc(Cl)c1F)N1CCN(Cc2cccc(Nc3nccs3)n2)CC1` [MK-8745] (top concentration 10000 nM), the “selective drug sensitivity score” value was determined as 9.4.
On to `Cc1ccc(NC(=O)c2ccc(CN3CCN(C)CC3)cc2)cc1Nc1nc(-c2cccnc2)cs1` [Masitinib] (top concentration 10000 nM), for which the “selective drug sensitivity score” value was found to be 1.82.
As to `CCN(CC)CCCC(C)Nc1c2ccc(Cl)cc2nc2ccc(OC)cc12` (centres undefined) [Mepacrine] (top concentration 50000 nM), the “selective drug sensitivity score” value was -7.1.
In the case of `COc1ccc(-c2ccc3ncc4c(c3c2)n(-c2ccc(N3CCNCC3)c(C(F)(F)F)c2)c(=O)n4C)cn1` [NVP-BGT226] (top concentration 1000 nM), the “selective drug sensitivity score” value turned out to be 4.42.
As for `COc1nc(N)nc2c1ncn2[C@@H]1O[C@H](CO)[C@@H](O)[C@@H]1O` [Nelarabine] (top concentration 10000 nM), the “selective drug sensitivity score” value came out at 2.68.
`Cc1cn(-c2cc(NC(=O)c3ccc(C)c(Nc4nccc(-c5cccnc5)n4)c3)cc(C(F)(F)F)c2)cn1` [Nilotinib] (top concentration 10000 nM): the “selective drug sensitivity score” value is 1.8.
As for `NC(=O)c1cccc2cn(-c3ccc(C4CCCNC4)cc3)nc12` (centres undefined) [Niraparib] (top concentration 10000 nM), the “selective drug sensitivity score” value was 1.98.
The same measure, in the same setting: the value for `COc1ccc(C[C@H](NC(=O)[C@H](C)NC(=O)CN2CCOCC2)C(=O)N[C@@H](Cc2ccccc2)C(=O)[C@@]2(C)CO2)cc1` [ONX-0914] (top concentration 10000 nM) was -3.1.

Values taken from the supplement of paper PMC8967900.
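Also: ALL cell lines in 384-well plates, five doses spanning 10,000-fold, each plate scaled between vehicle and 100 µmol/L benzalkonium chloride controls, sDSS an adapted area-under-curve metric.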
